Experimental data taken from patent US7148194B2, “Method to increase fibronectin” (Kimberly-Clark Worldwide, Inc., priority 2002, dated 2006).
“Also recorded” adds a separate entry of the source. Residues, ends and D or L forms follow the SMILES beside them.

Legend:
EpiDerm skin model = test: viability assay (MTT) in EpiDerm skin model; assay type: cell-based; details: peptide at 500 μM and 2 mM, relative to PBS control
Method: The sample containers were transferred to 6 well plates that contained fresh media. All peptides were dissolved in PBS at a final concentration of 10 mM, and 100 μL each peptide solution was pipetted onto the surface of the Epiderm sample container. Incubation was continued for 12 hours at 37° C., 5% CO2. After the incubation period, the sample containers were washed three times with PBS and the sample containers were transferred to a 24 well plate that contained 300 μL of MTT assay media per well (MTT concentration was 1 mg/mL). The colorimetric assay was allowed to develop for three hours (incubation at 37° C., 5% CO2). Sample containers were then transferred to a 24 well culture plate that contained 2 mL of isopropanol per well. Extraction of the colored precipitate occurred over a period of four hours at room temperature. Absorbance readings were taken at 570 nm and 650 nm for each sample. The percent viability of each sample relative to a PBS control was calculated as: 100×(OD570^sam−OD650^sam)/(OD570^con−OD650^con) (6) Routinely, the peptide sample was assayed in triplicate. Results

[1] = system: normal human dermal fibroblasts (NHDF); test: NHDF migration assay, 48-well chemotaxis chamber; assay type: cell-based; details: for induction of NHDF migration: concentrations ranging from 1000 μg/mL to 10 ng/mL (data not shown)
Method: Normal, human dermal fibroblasts (NHDF) were obtained from Biowhittaker, (Walkersville, Md.) and propagated in T75 flasks in FBM media (500 mL, Biowhittaker) containing insulin, hFGF-b, GA-1000, and fetal bovine serum (10 mL) for up to 12 passages. For the migration assay, NHDF were washed once with 10 mL of Hank's buffered saline solution (HBSS). Three milliliters of trypsin (0.25%) in EDTA were added to the T75 flask for no more than five minutes to remove NHDF from the flask. NHDF in trypsin solution were added to 7 mL of FBM with no supplements added. NHDF were centrifuged for 5 minutes, and the supernatant was removed. NHDF were resuspended in 10 mL of FBM for counting. NHDF were centrifuged for another 5 minutes, and the supernatant was removed. NHDF were resuspended at 1×10^6 cells per mL in FBM without supplements. It was important to use FBM media only in migration assays because the complete media contains fibroblast growth factor and serum, both of which will trigger migration of fibroblasts.
(§1) Peptides were synthesized and purified by the Microchemical Facility at Emory University or by SigmaGenesis. All peptides were analyzed by mass spectrometry after HPLC to assess purity. Approximately 0.5–2.0 milligrams of peptide were used to make fresh stock solutions (5 mg/mL in PBS) for each migration assay. The peptide stock solutions in PBS were used to make more dilute solutions (1 mg/mL, 100 μg/mL, 10 μg/mL, 1 μg/mL, 100 ng/mL, 10 ng/mL) in FBM (without supplements) for the migration assays.
Polyvinylpyrrolidone-free polycarbonate membranes with […] pores (Neuroprobe, Inc., Gaithersburg, Md.) were washed with 90% ethanol for 15 minutes and rinsed four times with deionized water. Membranes were then placed into a glass dish containing an aqueous solution of 5 μg/mL gelatin. The glass dish was placed in to a water bath at about 90° C. for one hour. Membranes were removed from the gelatin solution and were allowed to dry for one hour in the 37° C. incubator.
A 48-well chemotaxis chamber (Neuroprobe, Inc., Gaithersburg, Md.) (see FIG. 20) was used for the migration assays. Twenty-eight μL of each test solution were added to the bottom wells of the chamber in quadruplicate. A gelatin-treated membrane was placed carefully on top of the bottom wells. The gasket and top part of chamber were then placed carefully on top of the membrane. The apparatus was tightened using six thumbscrews. A solution of NHDF containing an estimated cell density (2×10^5 cells per mL) was made by adding 320 μL of the 1×10^6 cells per mL solution to 1.28 mL of FBM (no supplements). Fifty microliters of the 2×10^5 cells per mL NHDF solution were added to the top part of each well in the chamber. The chamber was placed in the incubator at 37° C./5% CO2 for three hours. The chamber was removed, the thumbscrews were removed, and the chamber was turned upside down on a paper towel. […] The membrane was carefully removed. […] The membrane was fixed with methanol and stained using the Diff-Quik Staining Solutions I and II. The nuclei of NHDF are stained purple. The membrane was mounted on a glass slide using cedarwood immersion oil and a cover slip. […] The average number of migrated NHDF in the negative control was subtracted from the experimental (peptide) data and positive control data.

neutrophils = test: neutrophil migration assay, transwell plate; assay type: cell-based, human; details: 10 nM, positive control
Method: as §1, with “HBSS/HSA)” for “PBS)”, “solutions” for “solutions in PBS”, “ng/mL, and” for “ng/mL,”, “HBSS/HSA” for “FBM (without supplements)”, “the” for “the migration”
Neutrophils were isolated from human blood (collected in Vacutainer™ tubes containing EDTA) by layering the blood/EDTA mixture (about 20 mL) on top of two layers of Histopaque™ 1119 (bottom layer, 18 mL) and 1077 (top layer, 7 mL) in 50 mL Falcon tubes. The tubes were centrifuged at 1800 rpm for 30 minutes (no brake). Four layers appeared in the tubes after the spin (from top to bottom layers): plasma, 1077, 1119, and red blood cells. The buffy coat between the plasma and 1077 layers contained lymphocytes, monocytes, and some platelets. The plasma layer, the buffy coat, and most of the 1077 layer was removed and discarded. The 1119 layer that contained the neutrophils was removed and was placed into a clean 50 mL tube. Dulbecco's Phosphate Buffered Saline (DPBS) was added to bring the volume to 50 mL. The cells were centrifuged for 15 minutes at 2100 rpm. The cells were resuspended in 10 mL of DPBS, transferred to 15 mL tubes, and centrifuged again for 10 minutes at 2000 rpm. This process was repeated to wash the cells a second time. After the supernatant was removed, the red blood cells were lysed by adding 6 mL of cold sterile water to each 15 mL of supernatant. Cells were mixed in the water for only 30 seconds. Six mL of cold 2% sterile saline was then added. Cells were centrifuged again for 10 minutes at 2000 rpm. The red supernatant (containing hemoglobin from red blood cells) was removed. This process of red blood cell lysis was repeated two more times to remove all of the red blood cells. After most of the red blood cells were removed, neutrophils were resuspended in 10 mL of HBSS/HSA for counting with trypan blue.
A neutrophil migration assay was performed in duplicate using a 24-well transwell plate (3 μm pore size for membrane). Transwell membranes were pre-moistened with 20–40 μL of HBSS/HSA (0.04–0.4%). Chemotactic solutions (500 μL) were added to the bottom of each well. […] Transwells were then placed into the chemotactic solutions. The plate was placed into the incubator (37° C., 5% CO2) for one hour. Cells that migrated through the membrane were counted using trypan blue.
In the neutrophil migration experiments, neutrophils that were isolated were approximately 95% viable. […]

Molecule | total average viability (EpiDerm skin model) | NHDF migration, percent of the plasma fibronectin positive control ([1]; 100 μg/mL peptide) | NHDF migration, percent of the plasma fibronectin positive control ([1]; 1000 μg/mL peptide) | induction of NHDF migration [1] | further results
CC(C)[C@H](NC(=O)[C@H](CC(=O)O)NC(=O)[C@@H]1CCCN1C(=O)[C@H](CC(N)=O)NC(=O)CNC(=O)[C@H](CS)NC(=O)[C@H](CCCNC(=N)N)NC(=O)[C@@H]1CCCN1)C(=O)N[C@@H](C)C(=O)O [Peptide 9-mer] (H-PRCGNPDVA-OH; N-terminus and C-terminus assumed) | 95.8% | 16±10% | 32±2% | – | –
N=C(N)NCCC[C@H](NC(=O)[C@@H]1CCCN1C(=O)[C@H](Cc1ccccc1)NC(=O)[C@H](Cc1ccccc1)NC(=O)[C@H](CC(N)=O)NC(=O)[C@H](Cc1ccc(O)cc1)NC(=O)[C@@H](N)CC(N)=O)C(=O)N[C@@H](CCCCN)C(=O)N1CCC[C@H]1C(=O)N[C@@H](CCCCN)C(=O)O [Peptide 10-mer] (H-NYNFFPRKPK-OH; N-terminus and C-terminus assumed) | 89.6% | 11±0% | 30±2% | – | –
IL-8: positive control for neutrophil migration, 10 nM [reference compound] | – | – | – | – | Percent Neutrophil Migration exp. 2 (neutrophils; 0.04% HSA): 51%; Percent Neutrophil Migration exp. 1 (neutrophils; 0.4% HSA): 81%
TLKAMRKPRCGNPDVAN (listed as Homo sapiens) [Peptide 17-mer] | – | – | – | not chemotactic to NHDF at any concentration; also recorded: did not induce NHDF migration; also recorded: no effect on fibroblast mobility | –
TMRKPRCGNPDVAN (listed as Homo sapiens) [Peptide 14-mer] | – | – | – | not chemotactic to NHDF at any concentration; also recorded: did not induce NHDF migration; also recorded: no effect on fibroblast mobility | –
